Test results reported in paper PMC5218480 (PLoS ONE, 2017).

System: MV-4-11 cells
Assay: Gene expression microarray analysis (Affymetrix PrimeView) and GSEA
Assay type: cell-based, human
Set-up: RFU PODN (11730768_x_at) / Fold change /veh PODN (11730768_x_at) / RFU LINC00158 (11744669_a_at) / Fold change /veh LINC00158 (11744669_a_at) / RFU DUSP10 (11751237_a_at) / Fold change /veh DUSP10 (11751237_a_at) / RFU ID3 (11757404_x_at) / Fold change /veh ID3 (11757404_x_at) / RFU PLEKHG5 (11737974_s_at) / Fold change /veh PLEKHG5 (11737974_s_at) / RFU LRRC4B (11730491_at) / Fold change /veh LRRC4B (11730491_at) / RFU GIMAP4 (11747438_a_at) / Fold change /veh GIMAP4 (11747438_a_at) / RFU KRT8 (11758183_x_at) / Fold change /veh KRT8 (11758183_x_at) / RFU CNN1 (11734310_a_at) / Fold change /veh CNN1 (11734310_a_at) / RFU VPS37D (11726825_at) / Fold change /veh VPS37D (11726825_at) / RFU C10orf10 (11716522_x_at) / Fold change /veh C10orf10 (11716522_x_at) / RFU KIR2DL2 /// KIR2DL4 /// KIR2DL5A /// KIR2DL5B /// KIR2DS1 /// KIR2DS2 /// KIR2DS3 /// KIR2DS4 /// KIR3DL3 /// KIR3DL3 /// KIR3DS1 (11738374_at) / Fold change /veh KIR2DL2 /// KIR2DL4 /// KIR2DL5A /// KIR2DL5B /// KIR2DS1 /// KIR2DS2 /// KIR2DS3 /// KIR2DS4 /// KIR3DL3 /// KIR3DL3 /// KIR3DS1 (11738374_at) / RFU C1QL1 (11718748_at) / Fold change /veh C1QL1 (11718748_at) / RFU TMPRSS4 (11747572_a_at) / Fold change /veh TMPRSS4 (11747572_a_at) / RFU HAMP (11756126_x_at) / Fold change /veh HAMP (11756126_x_at) / RFU RNFT2 (11725882_a_at) / Fold change /veh RNFT2 (11725882_a_at) / RFU NR4A2 (11747474_a_at) / Fold change /veh NR4A2 (11747474_a_at) / RFU ABCC12 (11746883_a_at) / Fold change /veh ABCC12 (11746883_a_at) / RFU TMEM136 (11760407_x_at) / Fold change /veh TMEM136 (11760407_x_at) / RFU CLDN22 /// WWC2 (11732394_at) / Fold change /veh CLDN22 /// WWC2 (11732394_at) / RFU HLA-DPB1 (11760878_x_at) / Fold change /veh HLA-DPB1 (11760878_x_at) / RFU SPINT1 (11716480_a_at) / Fold change /veh SPINT1 (11716480_a_at) / RFU GAP43 (11754022_s_at) / Fold change /veh GAP43 (11754022_s_at) / RFU A4GNT (11735810_at) / Fold change /veh A4GNT (11735810_at) / RFU PRB3 (11715151_x_at) / Fold change /veh PRB3 (11715151_x_at) / RFU TUBB4B (11761932_at) / Fold change /veh TUBB4B (11761932_at) / RFU CAPN14 (11732068_a_at) / Fold change /veh CAPN14 (11732068_a_at) / RFU TMCC2 (11721928_a_at) / Fold change /veh TMCC2 (11721928_a_at) / RFU IRGQ (11745062_a_at) / Fold change /veh IRGQ (11745062_a_at) / RFU FAM174B (11720279_a_at) / Fold change /veh FAM174B (11720279_a_at) / RFU TMPRSS4 (11748680_a_at) / Fold change /veh TMPRSS4 (11748680_a_at) / RFU FAM212B (11763350_a_at) / Fold change /veh FAM212B (11763350_a_at) / RFU PLEKHG5 (11743358_a_at) / Fold change /veh PLEKHG5 (11743358_a_at) / RFU ZSCAN30 (11745921_a_at) / Fold change /veh ZSCAN30 (11745921_a_at) / RFU CMKLR1 (11741424_a_at) / Fold change /veh CMKLR1 (11741424_a_at) / RFU LOC101060620 /// MAPK8IP1 (11723275_at) / Fold change /veh LOC101060620 /// MAPK8IP1 (11723275_at) / RFU SPTSSB (11747773_x_at) / Fold change /veh SPTSSB (11747773_x_at) / RFU PRSS12 (11739890_at) / Fold change /veh PRSS12 (11739890_at) / RFU BIN1 (11741810_x_at) / Fold change /veh BIN1 (11741810_x_at) / RFU WNT11 (11732464_a_at) / Fold change /veh WNT11 (11732464_a_at) / RFU C10orf10 (11716521_a_at) / Fold change /veh C10orf10 (11716521_a_at) / RFU C5orf56 (11738089_at) / Fold change /veh C5orf56 (11738089_at) / RFU CYB561 (11721691_x_at) / Fold change /veh CYB561 (11721691_x_at) / RFU ANKRD19P (11752326_a_at) / Fold change /veh ANKRD19P (11752326_a_at) / RFU OR2T12 /// OR2T33 /// OR2T8 (11738714_s_at) / Fold change /veh OR2T12 /// OR2T33 /// OR2T8 (11738714_s_at) / RFU VCAN (11748164_a_at) / Fold change /veh VCAN (11748164_a_at) / RFU JSRP1 (11732532_at) / Fold change /veh JSRP1 (11732532_at) / RFU KRTAP10-11 (11738290_x_at) / Fold change /veh KRTAP10-11 (11738290_x_at) / RFU MYO3A (11730013_a_at) / Fold change /veh MYO3A (11730013_a_at) / RFU EBF3 (11725865_a_at) / Fold change /veh EBF3 (11725865_a_at) / RFU CAMK2N1 (11719241_x_at) / Fold change /veh CAMK2N1 (11719241_x_at) / RFU C5orf56 (11738088_a_at) / Fold change /veh C5orf56 (11738088_a_at) / RFU OLFML3 (11715873_a_at) / Fold change /veh OLFML3 (11715873_a_at) / RFU LOC100653217 /// NTM (11731650_a_at) / Fold change /veh LOC100653217 /// NTM (11731650_a_at) / RFU MAPK11 (11762145_a_at) / Fold change /veh MAPK11 (11762145_a_at) / RFU FIZ1 (11724087_x_at) / Fold change /veh FIZ1 (11724087_x_at) / RFU OASL (11726364_x_at) / Fold change /veh OASL (11726364_x_at) / RFU SOX15 (11748057_x_at) / Fold change /veh SOX15 (11748057_x_at) / RFU CD79A (11719716_a_at) / Fold change /veh CD79A (11719716_a_at) / RFU HIST1H1D (11736915_at) / Fold change /veh HIST1H1D (11736915_at) / RFU CASKIN2 (11723855_a_at) / Fold change /veh CASKIN2 (11723855_a_at) / RFU LOC730098 (11760151_x_at) / Fold change /veh LOC730098 (11760151_x_at) / RFU OR4N2 (11742367_at) / Fold change /veh OR4N2 (11742367_at) / RFU PRRT2 (11749266_a_at) / Fold change /veh PRRT2 (11749266_a_at) / RFU SNX32 (11753110_a_at) / Fold change /veh SNX32 (11753110_a_at) / RFU CDHR5 (11726645_a_at) / Fold change /veh CDHR5 (11726645_a_at) / RFU RCAN1 (11760418_a_at) / Fold change /veh RCAN1 (11760418_a_at) / RFU FAM167A (11723789_a_at) / Fold change /veh FAM167A (11723789_a_at) / RFU FAM26E (11764081_at) / Fold change /veh FAM26E (11764081_at) / RFU ISYNA1 (11749810_s_at) / Fold change /veh ISYNA1 (11749810_s_at) / RFU ACY1 (11761880_at) / Fold change /veh ACY1 (11761880_at) / RFU 11764098_at / Fold change /veh 11764098_at / RFU SAMD14 (11745864_x_at) / Fold change /veh SAMD14 (11745864_x_at) / RFU NPB (11741838_a_at) / Fold change /veh NPB (11741838_a_at) / RFU TMPRSS6 (11731388_a_at) / Fold change /veh TMPRSS6 (11731388_a_at) / RFU KRTAP10-2 (11738614_at) / Fold change /veh KRTAP10-2 (11738614_at) / RFU ARHGAP8 /// PRR5-ARHGAP8 (11727945_x_at) / Fold change /veh ARHGAP8 /// PRR5-ARHGAP8 (11727945_x_at) / RFU KRTAP5-7 /// NADSYN1 (11734609_at) / Fold change /veh KRTAP5-7 /// NADSYN1 (11734609_at) / RFU RASL12 (11751679_a_at) / Fold change /veh RASL12 (11751679_a_at) / RFU CDKN2B (11736163_a_at) / Fold change /veh CDKN2B (11736163_a_at) / RFU PRF1 (11729649_at) / Fold change /veh PRF1 (11729649_at) / RFU, ZNF638 /// ZNF638-IT1 / Fold change vs veh, ZNF638 /// ZNF638-IT1 / RFU, PANK3 / Fold change vs veh, PANK3 / RFU, SH3YL1 / Fold change vs veh, SH3YL1 / RFU, ZEB2 / Fold change vs veh, ZEB2 / RFU, NRIP1 / Fold change vs veh, NRIP1 / RFU, PTTG1IP / Fold change vs veh, PTTG1IP / RFU, CAPN2 / Fold change vs veh, CAPN2 / RFU, MED14 / Fold change vs veh, MED14 / RFU, SNORA58 / Fold change vs veh, SNORA58 / RFU, C1orf63 / Fold change vs veh, C1orf63 / RFU, LRRFIP1 / Fold change vs veh, LRRFIP1 / RFU, NDUFAF7 / Fold change vs veh, NDUFAF7 / RFU, SLC12A2 / Fold change vs veh, SLC12A2 / RFU, IBTK / Fold change vs veh, IBTK / RFU, ESF1 / Fold change vs veh, ESF1 / Fold change vs veh, TMEM50B / RFU, TAOK1 / Fold change vs veh, TAOK1 / RFU, ACBD3 / Fold change vs veh, ACBD3 / RFU, TMA16 / Fold change vs veh, TMA16 / RFU, RWDD3 / Fold change vs veh, RWDD3 / RFU, BCAT1 / Fold change vs veh, BCAT1 / RFU, EDEM3 / Fold change vs veh, EDEM3 / RFU, TMEM33 / Fold change vs veh, TMEM33 / RFU, WDR75 / Fold change vs veh, WDR75 / RFU, AHCTF1 / Fold change vs veh, AHCTF1 / RFU, TFRC / Fold change vs veh, TFRC / RFU, ZDHHC17 / Fold change vs veh, ZDHHC17 / RFU, NOM1 / Fold change vs veh, NOM1 / RFU, ARL8B / Fold change vs veh, ARL8B / RFU, ZBTB11 / Fold change vs veh, ZBTB11 / RFU, TAMM41 / Fold change vs veh, TAMM41 / RFU, KIAA1704 /// LOC100996395 / Fold change vs veh, KIAA1704 /// LOC100996395 / RFU, ING1 / Fold change vs veh, ING1 / RFU, TRMT61B / Fold change vs veh, TRMT61B / RFU, FUBP3 / Fold change vs veh, FUBP3 / RFU, TP53 / Fold change vs veh, TP53 / RFU, TNKS2 / Fold change vs veh, TNKS2 / RFU, ZFP14 / Fold change vs veh, ZFP14 / RFU, ACTR2 / Fold change vs veh, ACTR2 / RFU, PPP3R1 / Fold change vs veh, PPP3R1 / RFU, PIK3R1 / Fold change vs veh, PIK3R1 / RFU, HNRNPA1 / Fold change vs veh, HNRNPA1 / RFU, RNF170 / Fold change vs veh, RNF170 / RFU, ZNF28 / Fold change vs veh, ZNF28 / RFU, RNGTT / Fold change vs veh, RNGTT / RFU, OGT / Fold change vs veh, OGT / RFU, BRD1 / Fold change vs veh, BRD1 / RFU, MARS / Fold change vs veh, MARS / RFU, ZNF655 / Fold change vs veh, ZNF655 / RFU, FAHD1 / Fold change vs veh, FAHD1 / RFU, BDP1 / Fold change vs veh, BDP1 / RFU, LRRCC1 / Fold change vs veh, LRRCC1 / RFU, ARID1A / Fold change vs veh, ARID1A / RFU, ZNF146 / Fold change vs veh, ZNF146 / RFU, ZNF330 / Fold change vs veh, ZNF330 / RFU, GPN3 / Fold change vs veh, GPN3 / RFU, C9orf123 / Fold change vs veh, C9orf123 / RFU, N4BP2L2 / Fold change vs veh, N4BP2L2 / RFU, ARFIP1 / Fold change vs veh, ARFIP1 / RFU, FAM179B / Fold change vs veh, FAM179B / RFU, BCL10 / Fold change vs veh, BCL10 / RFU, UHRF1BP1L / Fold change vs veh, UHRF1BP1L / RFU, BET1 / Fold change vs veh, BET1 / RFU, CNOT2 / Fold change vs veh, CNOT2 / RFU, ZNF268 / Fold change vs veh, ZNF268 / Fold change vs veh, ZNF507 / RFU, DGCR2 / Fold change vs veh, DGCR2 / RFU, WDSUB1 / Fold change vs veh, WDSUB1 / Fold change vs veh, HSP90B1 /// MIR3652 / RFU, ADSS / Fold change vs veh, ADSS / RFU, GK / Fold change vs veh, GK / RFU, ZNF148 / Fold change vs veh, ZNF148 / RFU, TAF9 / Fold change vs veh, TAF9 / RFU, SLC1A5 / Fold change vs veh, SLC1A5 / RFU, SLMO2 / Fold change vs veh, SLMO2 / RFU, ABCC4 / Fold change vs veh, ABCC4 / RFU, LOC101060439 /// RAP1B / Fold change vs veh, LOC101060439 /// RAP1B / RFU, RFX7 / Fold change vs veh, RFX7 / RFU, GTPBP10 / Fold change vs veh, GTPBP10 / RFU, CNEP1R1 / Fold change vs veh, CNEP1R1 / RFU, BIVM-ERCC5 /// ERCC5 / Fold change vs veh, BIVM-ERCC5 /// ERCC5 / RFU, ILF3 / Fold change vs veh, ILF3 / RFU 11762660_at / Fold change /veh 11762660_at / RFU VCAN (11757783_s_at) / Fold change /veh VCAN (11757783_s_at) / RFU DDX43 (11728927_at) / Fold change /veh DDX43 (11728927_at) / RFU KRT8 (11758188_x_at) / Fold change /veh KRT8 (11758188_x_at) / RFU NKD1 (11759106_at) / Fold change /veh NKD1 (11759106_at) / RFU SRD5A1 (11742802_a_at) / Fold change /veh SRD5A1 (11742802_a_at) / RFU TPSAB1 /// TPSB2 (11721975_s_at) / Fold change /veh TPSAB1 /// TPSB2 (11721975_s_at) / RFU GSTM3 (11746129_a_at) / Fold change /veh GSTM3 (11746129_a_at) / RFU IL23R (11737362_x_at) / Fold change /veh IL23R (11737362_x_at) / RFU TMEM51 (11727254_a_at) / Fold change /veh TMEM51 (11727254_a_at) / RFU PIWIL2 (11732686_x_at) / Fold change /veh PIWIL2 (11732686_x_at) / RFU ORM1 (11744905_x_at) / Fold change /veh ORM1 (11744905_x_at) / RFU CCDC152 (11743942_at) / Fold change /veh CCDC152 (11743942_at) / RFU ECM1 (11717891_a_at) / Fold change /veh ECM1 (11717891_a_at) / RFU IL23R (11748794_a_at) / Fold change /veh IL23R (11748794_a_at) / RFU TNFAIP8L3 (11732012_x_at) / Fold change /veh TNFAIP8L3 (11732012_x_at) / RFU MBOAT4 (11741988_at) / Fold change /veh MBOAT4 (11741988_at) / RFU 11764193_at / Fold change /veh 11764193_at / RFU TMEM53 (11763286_at) / Fold change /veh TMEM53 (11763286_at) / RFU MAGEB2 (11727129_at) / Fold change /veh MAGEB2 (11727129_at) / RFU TMEM200A (11744735_a_at) / Fold change /veh TMEM200A (11744735_a_at) / RFU CCDC152 (11751479_a_at) / Fold change /veh CCDC152 (11751479_a_at) / RFU FAM211A (11726209_a_at) / Fold change /veh FAM211A (11726209_a_at) / RFU RGS16 (11746705_a_at) / Fold change /veh RGS16 (11746705_a_at) / RFU VCAN (11755009_s_at) / Fold change /veh VCAN (11755009_s_at) / RFU RHOB (11743442_s_at) / Fold change /veh RHOB (11743442_s_at) / RFU RGS16 (11720943_a_at) / Fold change /veh RGS16 (11720943_a_at) / RFU RGS16 (11720944_at) / Fold change /veh RGS16 (11720944_at) / RFU, VPS4B / Fold change vs veh, VPS4B / RFU, CREB1 / Fold change vs veh, CREB1 / RFU, DNAJC13 / Fold change vs veh, DNAJC13 / RFU, GNAQ / Fold change vs veh, GNAQ / RFU, CDK5R1 / Fold change vs veh, CDK5R1 / RFU, ZRANB3 / Fold change vs veh, ZRANB3 / RFU, CUL4A / Fold change vs veh, CUL4A / RFU, CCNY / Fold change vs veh, CCNY / RFU, UFL1 / Fold change vs veh, UFL1 / RFU, COG3 / Fold change vs veh, COG3 / RFU, DIAPH2 / Fold change vs veh, DIAPH2 / RFU, SKA2 / Fold change vs veh, SKA2 / RFU, AFF3 / Fold change vs veh, AFF3 / RFU, LMF1 / Fold change vs veh, LMF1 / RFU, IPO11 / Fold change vs veh, IPO11 / RFU, DFFB / Fold change vs veh, DFFB / RFU, FOXP1 / Fold change vs veh, FOXP1 / RFU, CARD8 / Fold change vs veh, CARD8 / RFU, STRN3 / Fold change vs veh, STRN3 / RFU, ADK / Fold change vs veh, ADK / RFU, RASSF2 / Fold change vs veh, RASSF2 / RFU, WIPF1 / Fold change vs veh, WIPF1 / RFU, LARP1B / Fold change vs veh, LARP1B / RFU, RASA1 / Fold change vs veh, RASA1 / RFU, RB1 / Fold change vs veh, RB1 / RFU, PPFIA1 / Fold change vs veh, PPFIA1 / RFU, MAT2A / Fold change vs veh, MAT2A / RFU, CCT5 / Fold change vs veh, CCT5 / RFU, WDR92 / Fold change vs veh, WDR92 / RFU, CUX1 / Fold change vs veh, CUX1 / RFU, TTC7A / Fold change vs veh, TTC7A / RFU, TMEM135 / Fold change vs veh, TMEM135 / RFU, DEPTOR / Fold change vs veh, DEPTOR / RFU, CPM / Fold change vs veh, CPM / RFU, DNAJB6 / Fold change vs veh, DNAJB6 / RFU, CACNA2D3 / Fold change vs veh, CACNA2D3 / RFU, DTX4 / Fold change vs veh, DTX4 / RFU, TFCP2 / Fold change vs veh, TFCP2 / RFU, GMCL1 /// GMCL1P1 / Fold change vs veh, GMCL1 /// GMCL1P1 / RFU, AEBP2 / Fold change vs veh, AEBP2 / RFU, SNHG1 /// SNORD22 /// SNORD25 /// SNORD26 /// SNORD27 /// SNORD28 /// SNORD29 /// SNORD31 / Fold change vs veh, SNHG1 /// SNORD22 /// SNORD25 /// SNORD26 /// SNORD27 /// SNORD28 /// SNORD29 /// SNORD31 / Fold change (Aza/veh), C12orf56 (ProbeSet 11735607_a_at) / Fold change (ACY-1035/veh), C12orf56 (ProbeSet 11735607_a_at) / Fold change (Aza/veh), FGFR1OP (ProbeSet 11751329_s_at) / Fold change (ACY-1035/veh), FGFR1OP (ProbeSet 11751329_s_at) / Fold change (Aza/veh), VPS36 (ProbeSet 11739960_a_at) / Fold change (ACY-1035/veh), VPS36 (ProbeSet 11739960_a_at) / RFU SYPL1 (11715823_x_at) / Fold change /veh SYPL1 (11715823_x_at) / RFU IGFBP7 (11715501_s_at) / Fold change /veh IGFBP7 (11715501_s_at) / RFU REEP3 (11722064_at) / Fold change /veh REEP3 (11722064_at) / RFU IGLL1 (11728026_x_at) / Fold change /veh IGLL1 (11728026_x_at): dose or concentration left out as unconfirmed
Conditions: ProbeSet 11728314_at; LIST B

Nc1ncn([C@@H]2O[C@H](CO)[C@@H](O)[C@H]2O)c(=O)n1 [azacitidine]
Fold change vs veh, ZNF148: 0.99
